Source: a melting point compilation (Tetko et al.; mined from patent text by program, amines drawn as free bases though some values may be those of a salt)

SMILES | melting point
c1ccc(CNc2nccc3ccccc23)cc1 | 101 to 102 °C
CCCCNc1c2c(nc3c1cnn3CC)CCc1ccccc1C2=O | 91 to 93 °C
COc1ccc(CCc2c(Cl)cncc2Cl)c2c1OC(C)(C)C2 | 128 to 133 °C
COc1ccc(/C=C(\C#N)Cc2ccccc2)cc1OC1CCCC1 | 111 to 112 °C
Cc1c(Br)c2cnnc(Cl)c2n1Cc1ccccc1 | 138 to 140 °C
Cc1cn(C)c2c1N(C(=O)CCN1CCN(C)CC1)c1ccccc1NC2=O | 187 °C
O=C(N[C@@H](Cc1ccccc1)C(=O)O)c1cnccn1 | 166 to 169 °C
CCOCOC1(C(=O)CO)C(CC)CC2C3CC(CC)C4=CC(=O)C=CC4(C)C3C(O)CC21C (centres undefined) | 100 to 102 °C
ON=C(CCN1CCN(c2ccccn2)CC1)c1ccc(F)cc1 | 159 to 160 °C
CN1[C@H]2CC[C@@H]1[C@H](C=O)[C@@H](c1ccc(Cl)c(Cl)c1)C2 | 131 to 135 °C
OC1Cc2cccc(-c3ccccc3)c2C1 (single isomer, unassigned; (+)) | 100 to 101 °C
O=C(Nc1ccccc1)OCC(=O)c1ccccc1 | 146 to 148 °C
Nc1ccc(C#Cc2ccc(OC3CN4CCC3CC4)nn2)cc1 (centres undefined) | 212 to 220 °C
CC(=O)N1CCN(c2cccc(O)c2)CC1 | 186 °C
CC(CCC(=O)NCCS(=O)(=O)O)C1CCC2C3C(O)CC4CC(NC(=O)CNC(=O)OC(C)(C)C)CCC4(C)C3CC(O)C12C (centres undefined) | 150 to 155 °C
O=C(O)CCOc1cccc2ncccc12 | 217 to 219 °C
CCCCCCCCCC1COC(c2ccc(CCCCCCC)c(F)c2F)OC1 (centres undefined) | 40.4 °C
CNc1noc(C)c1Cl | 43 to 47 °C
O=C1NC(N2CCCCCC2)=N/C1=C\c1c[nH]c2ncc(F)cc12 | 299 °C

The next lines start with the values.

melting point | SMILES
240 to 242 °C | O=C1c2ccc([N+](=O)[O-])cc2C(=O)N1C1CCN(Cc2ccccc2)CC1
195 °C | COC(=O)c1ccc(C(=O)Nc2ccc(C)c(Nc3nc(-c4cccnc4)cs3)c2)cc1
113 to 114 °C | COc1ccc2ccc(OCc3ccc4ccccc4n3)cc2c1
107 to 109 °C | Cc1ccc(-n2nc(C(=O)CCCO[N+](=O)[O-])cc2-c2ccc(S(C)(=O)=O)cc2)cc1
277 to 279 °C | CCOc1cc(C(CS(C)(=O)=O)N2C(=O)c3cccc(N(S(C)(=O)=O)S(C)(=O)=O)c3C2=O)ccc1OC (centres undefined)
240 to 242 °C | COC(=O)c1n[nH]c2cc(C(F)(F)F)ccc12
136 to 137 °C | COC(=O)NC(CCc1ccc(Br)cc1)C(=O)O (centres undefined)
209 to 210 °C | COc1ccc(CN2c3ncccc3NC(=O)c3cccnc32)cc1
101 to 102 °C | Cc1ccc(-c2nc(Cc3cccc(CBr)c3)c(C)o2)cc1
78 °C | COC(=O)n1c(SCc2ccccn2)nc2ccccc21
64 °C | CNC(=O)[C@@H]1C[C@@H](OC)CN1S(=O)(=O)c1ccc(Cl)c(CBr)c1Cl
82 to 86 °C | COC(=O)CCc1cc2cc(Cl)ccc2n1S(=O)(=O)c1ccc(C(F)(F)F)cc1
152 to 160 °C | NC(=O)c1ccc(F)c2c1CC(N(CCCc1c[nH]c3ccc(Cl)cc13)C1CCC1)CO2 (centres undefined)
220 to 221 °C | CCN(CC)c1ccc(Nc2nc(N)c(C(=O)c3ccc([N+](=O)[O-])cc3)s2)cc1
> 250 °C | NC(=O)Cn1c(-c2ccc(Br)cc2)nc2cccnc21
205 to 207 °C | CC1Oc2cc(Cl)ccc2/C1=N\NC(=O)Nc1ccc(C(F)(F)F)cc1 (centres undefined)
163 to 164 °C | CN(Cc1ccc(Cl)c(Cl)c1)C(=O)C1=C(O)C(=O)N(C2CC2)C1
190 to 196 °C | COc1ccc(CNc2c(OCCC(O)c3ccc(Cl)cc3)n[nH]c(=O)c2Br)cc1OC (centres undefined)
81 to 82 °C | CC#CCn1nc(-c2ccc(F)cc2)c(-c2ccc(S(C)(=O)=O)cc2)cc1=O
130 to 133 °C | C#CC[C@H](c1nc2cc(Cl)ccc2c(=O)n1Nc1ccccc1)N(CCCN)C(=O)c1ccc(C)cc1
